From PubChem BioAssay (NCI)
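Protocol summary: plate cells (96-well), add compound at 5 concentrations, incubate 48 h, interpolate endpoints linearly. The concentration for 50% growth inhibition is given as GI50. The concentration for full growth arrest is given as TGI.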

What was measured:
Assay in all cases: inhibition of tumour cell growth, NCI panel, 48 h
IGROV1 ovarian = test system: IGROV1 ovarian
HOP-62 NSCLC = test system: HOP-62 NSCLC
SK-MEL-5 melanoma = test system: SK-MEL-5 melanoma
U251 CNS = test system: U251 CNS
RPMI-8226 leukemia = test system: RPMI-8226 leukemia
HOP-92 NSCLC = test system: HOP-92 NSCLC
SNB-75 CNS = test system: SNB-75 CNS
HCC-2998 colon = test system: HCC-2998 colon

SMILES | GI50 (IGROV1 ovarian) [µM] | TGI (IGROV1 ovarian) [µM] | GI50 (HOP-62 NSCLC) [µM] | GI50 (SK-MEL-5 melanoma) [µM] | TGI (SK-MEL-5 melanoma) [µM] | GI50 (U251 CNS) [µM] | TGI (U251 CNS) [µM] | GI50 (RPMI-8226 leukemia) [µM] | TGI (RPMI-8226 leukemia) [µM] | GI50 (HOP-92 NSCLC) [µM] | TGI (HOP-92 NSCLC) [µM] | GI50 (SNB-75 CNS) [µM] | TGI (SNB-75 CNS) [µM] | GI50 (HCC-2998 colon) [µM] | TGI (HCC-2998 colon) [µM] | TGI (HOP-62 NSCLC) [µM]
CC[C@H]1CCC/C=C/[C@@H]2C[C@H](O)C[C@H]2[C@H](O)/C=C/C(=O)O1 | 0.152 | > 100 | 0.0809 | 0.0166 | 0.0328 | 0.0443 | > 100 | 0.0387 | 12.5 | 0.157 | > 100 | < 0.0119 | > 100 |  |  | 
CC(=O)[CH-]C(C)=O.CC(=O)[CH-]C(C)=O.[Cl-].[O]=[V] | 11.1 | 64.2 |  | 28.4 | 70.6 | 22.5 | 59 |  |  |  |  | 8.51 | 25.2 | 37.1 | > 100 | 
O=C1c2cc3c(cc2-c2c1c1ccc(F)cc1c(=O)n2C[C@H](O)[C@H](O)[C@H](O)CO)OCO3 | 0.322 | > 100 | 0.112 | 0.141 | 0.277 | 0.05 | 0.258 | 0.505 | 5.6 | 0.243 | 0.896 |  |  |  |  | 0.52
COc1ccc(-c2cc(-c3ccc(OC)cc3)nc(NCCCNc3ccnc4cc(Cl)ccc34)n2)cc1 | 1.51 | 3.12 | 1.56 | 1.54 | 2.89 | 1.6 | 3 |  |  | 1.24 | 2.64 | 11.8 | 24.5 | 1.73 | 3.2 | 3.06
